“Also recorded” adds a separate entry of the source.
Columns and labels:
farnesylated UCH-L1 = test: Farnesylated UCH-L1 in cortex membrane fraction of α-synuclein transgenic mice (quantitative Western blot); format: in vivo; conditions: normalized to actin, 45 mg/kg twice a day, 30 days
Procedure: Farnesyl transferase inhibitors Zarnestra and OSI-754 were administered to mice of the α-synuclein transgenic line described in Masliah et al. (Masliah et al. “Dopaminergic loss and inclusion body formation in alpha-synuclein mice: implications for neurodegenerative disorders” Science 287(5456): 1265-69, 2000; incorporated herein by reference). Animals from this line have α-synuclein neuronal inclusions in the cortex, hippocampus, and the olfactory bulb (Masliah et al. “Dopaminergic loss and inclusion body formation in alpha-synuclein mice: implications for neurodegenerative disorders” Science 287(5456): 1265-69, 2000; incorporated herein by reference). […]
Total α-synuclein levels were analyzed by a sandwich ELISA assay similar to one previously described (El-Agnaf et al. “Detection of oligomeric forms of alpha-synuclein protein in human plasma as a potential biomarker for Parkinson's disease” FASEB J. 20(3):419-25, 2006; incorporated herein by reference). […] Transgenic mice that received Zarnestra had lower α-synuclein protein levels than vehicle-treated transgenic mice and nearly the same as that detected in the non-transgenic group in both the cytoplasmic (FIG. 10) and membrane fractions (FIG. 11), which represent soluble and insoluble α-synuclein, respectively. […] The amount of UCH-L1 was determined by quantitative Western Blot. […]

α-synuclein inclusions = test: Inclusion histology in α-synuclein transgenic mice (α-synuclein and ubiquitin immunostaining, Campbell-Switzer); format: in vivo; conditions: for α-synuclein-positive cells per mm^2 versus vehicle: cortex and hippocampus
Procedure: (§1) Farnesyl transferase inhibitors Zarnestra and OSI-754 were administered to mice of the α-synuclein transgenic line described in Masliah et al. (Masliah et al. “Dopaminergic loss and inclusion body formation in alpha-synuclein mice: implications for neurodegenerative disorders” Science 287(5456): 1265-69, 2000; incorporated herein by reference). Animals from this line have α-synuclein neuronal inclusions in the cortex, hippocampus, and the olfactory bulb (Masliah et al. “Dopaminergic loss and inclusion body formation in alpha-synuclein mice: implications for neurodegenerative disorders” Science 287(5456): 1265-69, 2000; incorporated herein by reference). Transgenic mice were orally administered either FTI in 20% cyclodextrin solution or the same volume of vehicle alone twice a day for 30 or 90 days. In some cases, non-transgenic mice also received vehicle twice a day for 30 to 90 days. At the end of treatment, mice were sacrificed, and the brains removed and hemisected. One hemisphere of each was fixed in 4% paraformaldehyde/PBS (pH 7.4), cryoperserved, then sectioned for histology. The other hemisphere was subdivided into four brain regions, including the cortex and hippocampus, that were homogenized and processed into cytoplasmic and membrane fractions.
Formation of α-synuclein inclusions in the cortex and hippocampus was probed by immunostaining with an antibody for human α-synuclein. Cells positive for human α-synuclein were quantified. […] These regions were also analyzed for ubiquitin-immunoreactive inclusions and by the Campbell Switzer method of silver staining. Ubiquitin is known to be a constituent of Lewy bodies and in the α-synculein inclusions found in the transgenic mouse line used in the study (Masliah et al. “Dopaminergic loss and inclusion body formation in alpha-synuclein mice: implications for neurodegenerative disorders” Science 287(5456): 1265-69, 2000; incorporated herein by reference). […] Campbell-Switzer staining is a general marker of Lewy Body type inclusions (Uchihara et al. “Silver stainings distinguish Lewy bodies and glial cytoplasmic inclusions: comparison between Gallyas-Braak and Campbell-Switzer methods” Acta Neuropathol (Berl) 110(3):255-60, 2005; incorporated herein by reference).
Formation of α-synuclein inclusions in the cortex and hippocampus was probed by immunostaining with an antibody for human α-synuclein. Cells positive for human α-synuclein were quantified.

α-synuclein = α-synuclein sandwich ELISA in brain fractions of α-synuclein transgenic mice; format: in vivo
Procedure: as §1
Total α-synuclein levels were analyzed by a sandwich ELISA assay similar to one previously described (El-Agnaf et al. “Detection of oligomeric forms of alpha-synuclein protein in human plasma as a potential biomarker for Parkinson's disease” FASEB J. 20(3):419-25, 2006; incorporated herein by reference). In the cortex of vehicle treated animals, α-synuclein protein levels in the α-synuclein transgenic line are greater than in non-transgenic mice in both cytoplasmic (FIG. 10) and membrane fractions (FIG. 11). Transgenic mice that received Zarnestra had lower α-synuclein protein levels than vehicle-treated transgenic mice and nearly the same as that detected in the non-transgenic group in both the cytoplasmic (FIG. 10) and membrane fractions (FIG. 11), which represent soluble and insoluble α-synuclein, respectively. Farnesylated UCH-L1 in the cortex is contained in the membrane fraction. The amount of UCH-L1 was determined by quantitative Western Blot.

[1] = target: recombinant farnesyl transferase (FTase) (Homo sapiens, UniProt P49354+P49356); test: In vitro farnesyl transferase assay (fluorescent dansyl-pentapeptide); format: biochemical; conditions: in vitro and in vivo
Text: These neuroblastoma cells can be differentiated into dopaminergic cells and are useful for assessing the pathogenesis of Parkinson's disease (PD). […] Similar findings were found in vivo. […] IC50 values for various inventive compounds have been determined in in vitro assays using recombinant farnesyl transferase and a dansylated pentapeptide substrate. For a description of the assay used, see Cassidy et al., Methods Enzymol. 250:30-43, 1995, which is incorporated herein by reference. […] The compounds were also found to inhibit the farnesylation of Ras in cells treated with the test compound. IC50 values in vivo range from about 0.5 nM to about 25 μM.
Compounds were analyzed for inhibition of farnesyl transferase (FTase) activity using an established fluorescent peptide-based assay (Pompliano et al 1992 J. Am. Chem. Soc. 114:7945; U.S. Pat. No. 5,525,479, issued Jun. 11, 1996; each of which is incorporated herein by reference). In summary, a dansyl-pentapeptide (dGCVLS) (SEQ ID NO: 8) was incubated at […] with […] farnesyl pyrophosphate (FPP) and 25-50 nM FTase in 50 mM Tris-HC1/12 mM MgC12/[…]/6 mM DTT/0.2% octyl-D- -glucopyranoside/pH 7.0 at room temperature while the increase in fluorescence of the peptide at Ex =340 nm , Em =485 nm upon farnesyl addition was monitored continuously by a spectrofluorometer. […]

[2] = tested on: Neuronal Specific Nuclear Protein (NeuN); test: NeuN staining of cortex and hippocampus of α-synuclein transgenic mice; format: in vivo; conditions: 90 days
[3] = tested on: α-synuclein in SH-SY5Y cells; test: α-synuclein accumulation in infected SH-SY5Y cells (Western blot); format: cell-based; conditions: SH-SY5Y cells infected with α-synuclein adenovirus, normalized to actin
Procedure: Western Blotting: Following transfer of SDS gels onto NC membrane, all membranes were blocked with 5% non-fat milk in TBST (50 mM Tris-HCl pH7.4, 150 mM NaCl, 0.1% Tween 20), and incubated with primary antibody overnight with 1% BSA in TBST, washed three times with TBST, and incubated with horseradish peroxidase-conjugated secondary antibody for 1 hour (Promega). Bound antibodies were detected using enhanced chemiluminascence (NEM).
Since α-synuclein neurotoxicity is dose-dependent, it follows that accumulation of α-synuclein, caused by UCH-L1 farnesylation, should promote its toxicity. […] These cells express high endogenous levels of UCH-L1. […] The unit of y-axis is 10^5/ml. (F) Cell viability was assessed by the amount of metabolic activity using MTT assay. […] The effect of FTI-277 on the α-synuclein accumulation in the SH-SY5Y infected with α-synuclein-expressing adenovirus were analyzed by Western blotting (B) and the amount of α-synuclein (C) was quantified using NIH Image program and normalized against the amount of actin.

UCH-L1 in SH-SY5Y cells = test: UCH-L1 membrane association and level in SH-SY5Y cells (2D electrophoresis, Western blot); format: cell-based
Procedure: Membrane fractionation: Cells were harvested by scraping and washed with PBS. Cell pellet was suspended in lysis buffer (50 mM Tris-HCl, 1 mM EDTA) supplemented with protease inhibitor cocktail (Sigma) and homogenized by passing through 26G needles 10 times. Suspension was clarified by spinning at 600 g for 5 minutes. Clarified suspension was ultracentrifuged at 100,000 g for 2 hours and separated into membrane and cytosol. Membrane fraction was washed with washing buffer (50 mM Tris-HCl, 1 mM EDTA 1 M NaCl), and pelleted each time with bench-top centrifuge.
2D electrophoresis: For the isolation of total cellular protein, cultured SH-SY5Y cells maintained as described above were rinsed with ice-cold PBS. Cells were lysed in 1 ml dSDS buffer (50 mM Tris-HCl, pH 8.0 0.1% SDS) supplemented with protease inhibitor cocktail. Lysates were boiled for 3 min, and were treated with Dnase and Rnase as described. Lysates were precipitated with ice-cold acetone for at least 2 hours, and pellets were resuspended in 2D sample buffer (8M urea, 0.5% CHAPS, 0.2% DTT, 0.5% IPG buffer, 0.002% bromophenol blue). 2D electrophoresis was carried out according to manufacture's protocol (Amersham Life Science). 7 cm pH 4-7 strips were used. For SH-SY5Y membrane fraction, culture SH-SY5Y cells were rinsed with cold PBS and harvested with lysis buffer (50 mM Tris-HCl, pH 8.0, 1 mM ZnAc2, 250 mM sucrose). Lysate was passed through 25G needles for several times and spun at 1000 g for 5 min. Supernatant was centrifuged at 200,000 g for 2 hours. Pellet was extensively washed with lysis buffer and extracted with cold acetone. Pellet was resuspended in 2D sample buffer.
This species was presumably the fully processed species: farnesylated, truncated and C-terminally methylated.

[4] = tested on: α-synuclein in COS-7 cells; test: α-synuclein degradation assay in COS-7 cells; format: cell-based; conditions: COS-7 cells
Text: Plasmids: C220S cDNA was generated by PCR site-specific mutagenesis. For the PCR, the 5′ primer is uchforw SEQ ID NO: 1 ([…]), and 3′ primer is uchc220s SEQ ID NO:2 (CTAAGA […]). Wt UCH-L1 served as the template. The PCR fragment was inserted into pcDNA vector. For S 18YC220S mutant, S 18Y UCH-L1 served as the template in PCR. For the FLAG tagged UCH-L1, the 5′ primer is FLAGuchforw SEQ ID NO: 3 ([…] CGATGGAG), and the 3′ primer is uchrev SEQ ID NO: 4 ([…]). Wt UCH-L1 or C220S served as the template. PCR fragment was purified and inserted into pcDNA vector. For the FLAG tagged UCH-L3, the 5′ primer is L3HindIII SEQ ID NO: 5 (CTAAAGCTTATGGACTAC […]), the 3′ primer is L3XhoISAA SEQ ID NO: 6 ([…]). […] After 24 hours of incubation, the cells were lysed with Tris buffer (50 mM Tris, 2% SDS, 0.1% NP-40), and subjected to SDS-PAGE, followed by quantitative Western blotting.
The C220S mutation eliminated the ability of S118 to promote α-synuclein accumulation in COS-7 cells but had no effect on the S18Y polymorph (FIG. 2, panel C): the relative amount of 16 kDa α-synuclein was quantified and normalized against the amount of actin in transfected COS-7 cells with the presence of UCH-L1 variants. […]

[5] = tested on: SH-SY5Y cells overexpressing α-synuclein; test: α-synuclein toxicity in SH-SY5Y cells infected with α-synuclein-expressing adenovirus (Trypan blue, MTT); format: cell-based
Procedure: Viral Infection: Viral infection and MTT assay in SH-SY5Y cells: The viruses were amplified and purified according to the published procedure. SH-SY5Y cells were grown on 100 mm petri-dishes and induced with 100 nM retinoic acid for 3-5 days before the virus infection with M.I.O at 75. Viruses were diluted with DPBS to desired M.I.O. After four hours of incubation, 10 ml growth medium was added. On the second day, cells were splitted into 96-well plates and treated with compounds for next 48 hours. The growth medium in each well was replaced with growth medium with 5 ug/ml MTT. Medium was removed after three hours incubation, and 200 ul isopropyl (0.04N HCl) was added into each well. The signal was read at 570 nm.
Viable cell counting: At stated time points, SH-SY5Y cells were trypsinized with 100 ul trypsin-EDTA for 1 minute and neutralized with 400 ul growth medium. Cell suspension was made up by mixing 0.2 ml of cells in growth medium, 0.3 ml of HBSS and 0.5 ml of 0.4% Trypan Blue solution. Viable cell numbers were counted by standard cell counting chamber.
Since α-synuclein neurotoxicity is dose-dependent, it follows that accumulation of α-synuclein, caused by UCH-L1 farnesylation, should promote its toxicity. […] These cells express high endogenous levels of UCH-L1. […] The unit of y-axis is 10^5/ml. (F) Cell viability was assessed by the amount of metabolic activity using MTT assay. […]

[6] = tested on: primary dopaminergic cultures; test: α-synuclein toxicity in primary dopaminergic cultures; format: cell-based
[7] = α-synuclein transgenic mice, summary, dose not given

Row | SMILES | amount of farnesylated UCH-L1 (farnesylated UCH-L1) | inclusions versus vehicle (α-synuclein inclusions; 9 mg/kg twice a day, 90 days) | inclusions versus vehicle (α-synuclein inclusions; 45 mg/kg twice a day, 90 days) | α-synuclein-positive cells per mm^2 versus vehicle (α-synuclein inclusions; 9 mg/kg twice a day, 90 days) | α-synuclein-positive cells per mm^2 versus vehicle (α-synuclein inclusions; 45 mg/kg twice a day, 90 days) | inclusions versus vehicle (α-synuclein inclusions; [7]) | levels of α-synuclein protein (ELISA) (α-synuclein; cortex and hippocampus, 9 mg/kg twice a day, 90 days) | levels of α-synuclein protein (ELISA) (α-synuclein; cortex and hippocampus, 45 mg/kg twice a day, 90 days) | levels of α-synuclein protein (ELISA) (α-synuclein; cortex, cytoplasmic and membrane fractions, 45 mg/kg twice a day, 30 days) | levels of α-synuclein in the cortex (α-synuclein; [7]) | inhibition of the farnesylation of proteins and/or peptides [1] | neuronal morphology or density (NeuN staining) [2] | amount of α-synuclein [3] | total amount of UCH-L1 (UCH-L1 in SH-SY5Y cells) | amount of cytosolic UCH-L1 (UCH-L1 in SH-SY5Y cells; compared to DMSO) | amount of membrane bound UCH-L1 (UCH-L1 in SH-SY5Y cells; compared to DMSO) | rate of turnover of UCH-L1 (UCH-L1 in SH-SY5Y cells; pulse-chase) | α-synuclein levels [4] | loss of cells (α-synuclein toxicity) [5] | α-synuclein toxicity [6]
1 | C#Cc1cccc(-c2cc(=O)n(C)c3ccc(C(O)(c4ccc(Cl)cc4)c4cncn4C)cc23)c1 (centres unmarked) [LNK-754] | decreased the amount of farnesylated UCH-L1 | fewer inclusions | fewer inclusions | fewer α-synuclein-positive cells per mm^2 | fewer α-synuclein-positive cells per mm^2 | fewer inclusions | decreased levels of α-synuclein protein | decreased levels of α-synuclein protein | decreased levels of α-synuclein protein | decrease levels of α-synuclein in the cortex | inhibit the farnesylation of proteins and/or peptides in vitro and in vivo | did not affect neuronal morphology or density |  |  |  |  |  |  |  | 
2 | COC(=O)[C@H](CCSC)NC(=O)c1ccc(NC[C@@H](N)CS)cc1-c1ccccc1 [FTI-277] |  |  |  |  |  |  |  |  |  |  |  |  | reduced the amount of α-synuclein | reduced the total amount of UCH-L1 | without affecting | significant decrease; also recorded: reducing the amount of membrane-associated protein | increased its rate of turnover | lowers α-synuclein levels | inhibits synuclein toxicity; also recorded: significantly decreased loss of cells | inhibit α-synuclein toxicity
